Measurements reported in patent publication US10028989B2, “Composition comprising Retinol, a precursor or a reaction product of it and a plant extract from at least one Chamomilla plant for the treatment of cancer” (ALPINIA LAUDANUM INSTITUTE OF PHYTOPHARMACEUTICAL SCIENCES …, priority 2010, dated 2018).
“Also recorded” adds a separate entry of the source.

What was measured:
[1] = tested on: A172 human glioblastoma cell line; experiment: Cellular growth of A172 cells, live cell count with Trypan Blue (Example 10); format: cell-based; conditions: retinyl acetate 1 μg/ml, 6 days, FIG. 1A
Procedure: The human glioblastoma cell lines A172 and U87 MG were cultivated in culture medium containing 10% FBS and kept in a humidified incubator at 37° C. and 5% CO2. Cultures used in subsequent experiments were passaged less than 25 times. The cells were seeded at 100,000 cells in T25 cm2 culture flasks (cell concentration of 10,000 cells/ml). MR15E7 and Retinyl Acetate prepared according to examples 1 and 8 respectively were added alone as individual or together in combination (A172 FIGS. 1A and U87 FIG. 1B). The solvent control was 2% ethanol. Media were replaced once after 3 days of incubation with fresh media and samples. After 6 days, all cells were harvested to be analyzed. The cell number was determined using a cell counter (Countess® automated cell counter, Invitrogen). Live cells were differentiated from dead cells by adding Trypan Blue. Live cells would be Trypan Blue negative since the dye would be excluded from viable cells. […] Solvent control was set at 100%. […] The solvent control and the final ethanol concentration for every well was 2%.

[2] = tested on: U87 MG human glioblastoma cell line; experiment: Cellular growth of U87 MG cells, live cell count with Trypan Blue (Example 10); format: cell-based; conditions: MR15E7 30 μg/ml, retinyl acetate 1 μg/ml, 6 days, FIG. 1B
Procedure: The human glioblastoma cell lines A172 and U87 MG were cultivated in culture medium containing 10% FBS and kept in a humidified incubator at 37° C. and 5% CO2. Cultures used in subsequent experiments were passaged less than 25 times. The cells were seeded at 100,000 cells in T25 cm2 culture flasks (cell concentration of 10,000 cells/ml). MR15E7 and Retinyl Acetate prepared according to examples 1 and 8 respectively were added alone as individual or together in combination (A172 FIGS. 1A and U87 FIG. 1B). The solvent control was 2% ethanol.
Media were replaced once after 3 days of incubation with fresh media and samples. After 6 days, all cells were harvested to be analyzed. The cell number was determined using a cell counter (Countess® automated cell counter, Invitrogen).
Live cells were differentiated from dead cells by adding Trypan Blue. Live cells would be Trypan Blue negative since the dye would be excluded from viable cells.
Solvent control was set at 100%. […] The potential growth inhibitory effects of retinyl acetate (1 μg/ml), MR15E7 (30 μg/ml) and the combination of 30 μg/ml of the extract and retinyl acetate (1 μg/ml) were observed on both the A172 (A) and U87 MG (B) cell lines. The solvent control and the final ethanol concentration for every well was 2%.

[3] = tested on: H460 human large cell lung cancer cell line; experiment: Cellular growth of H460 cells, flow cytometry cell count with PI (Example 11); format: cell-based; conditions: retinoic acid 1 μg/ml, extracts 21 μg/ml, 6 days, 2% ethanol, FIG. 2
Procedure: (§1) The human large cell lung cancer cell line, H460, was obtained from the American Type Culture Collection. The cells were cultivated in RPMI-1640 medium containing 10% FBS and kept in a humidified incubator at 37° C. and 5% CO2. Cultures used in subsequent experiments were passaged less than 25 times. The H460 cells were seeded at 14375 cells/well (cell concentration of 10,000 cells/ml) in 12 well plates and were left to adhere overnight.
MR15E14, CHARE and Retinoic acid prepared as described in examples 2, 4 and 9 respectively including a solvent control (2% ethanol) were added to the cells. Media were replaced once after 3 days of incubation with fresh media and samples. After 6 days, all cells were harvested to be analyzed. The cell number was determined using flow cytometry. Live cells were differentiated from dead cells by adding Propidium iodide (PI). Live cells would be PI negative since the dye would be excluded from viable cells.
In short, cells were trypsinized, centrifuged and resuspended in 500 μl of media. 2 μl of PI (1 mg/ml) was added to 400 μl of cell suspension. Since the cells number present in 10 μl of the cell suspension was measured, multiple measurements for each well were taken.
Solvent control was set at 100%.

[4] = tested on: H460 human large cell lung cancer cell line; experiment: Cellular growth of H460 cells, AMT without chamomile, with MR15E14 or with CHARE (Example 12); format: cell-based; conditions: extracts 21 μg/ml, 1% AMT, retinoic acid 1 μg/ml or 1% ethanol, 6 days, FIG. 3A/3B
Procedure: as §1, with “The following experiments were performed to compare the composition of the present invention with the teaching of WO 03101479 A1: The human” for “The human”
The H460 cells were incubated with the samples and sample pairs for a total of 6 days with one dose and media refreshment. After 6 days, all cells were harvested to be analyzed. The cell number was determined using flow cytometry. Live cells were differentiated from dead cells by adding Propidium iodide (PI). In short, cells were trypsinized, centrifuged and resuspended in 500 μl of media. 2 μl of PI (1 mg/ml) was added to 400 μl of cell suspension. Since the cells number present in 10 μl of the cell suspension was measured, multiple measurements for each well were taken. […] Solvent control was set at 100%.

[5] = tested on: Pan02 murine pancreatic adenocarcinoma; experiment: Efficacy study in the syngenic orthotopic Pan02 tumor model (Example 15); format: in vivo, female C57BL/6 mice; conditions: oral, 21 days
Text: The purpose of this study was to obtain information about the efficacy of the oral combination of Chamomile extract (MR31E25C1 and Retinoic acid (RetAcid) in a syngenic orthotropic PAN02 tumor murine model.
Young (approximately 7 weeks) female C57BL/6 mice were purchased from the National Cancer Institute (Frederick, Md.) and maintained in Aurigon Life Science GmbH's animal care facility with ad libitum access to water and mouse chow (Ssniff® R/M-H). The animals were divided into groups of 10 animals.
All animals, except those in the non-inoculated control group, were given an intrapancreatic injection of 2.5×10^5 Pan02 tumor cells each. Pan02 is a murine pancreatic adenocarcinoma cell line syngeneic to the C57BL/6 species. First treatment was given orally 15 days after the inoculation for a total period of 21 days.
Necropsy was performed at the end of the in-life phase or immediately on animals found dead or killed in extremis. The weights of the brain, whole pancreas, pancreatic tumor, spleen, and liver were determined and the number/size of metastases on the surface of the spleen and liver, peritoneal, kidney, ovary, diaphragm metastases, and metastases of the lymph nodes (if applicable) were recorded. Additionally, the size of the pancreatic tumors of the animals was measured.
The groups were as follows:
Group 1: Non-inoculated, untreated control group. […]

SMILES	effect on cellular growth [1]	effect on cellular growth [2]	effect on cellular growth [3]	effect on cellular growth [4]	median tumor volume ([5]; MR31E25C1 484.5 mg/kg 3x daily, retinoic acid 25 mg/kg 2x daily for 2 days, then 10 mg/kg daily, FIG. 5)	cumulative metastases area in various organs ([5]; same doses, vs untreated PAN02 inoculated group, FIG. 6)
CC(=O)OC/C=C(C)/C=C/C=C(C)/C=C/C1=C(C)CCCC1(C)C [retinyl acetate, Retinyl Acetate]	did not affect cellular growth; also recorded: do not affect cellular growth	did not affect cellular growth; also recorded: do not affect cellular growth	–	–	–	–
CC1=C(/C=C/C(C)=C/C=C/C(C)=C/C(=O)O)C(C)(C)CCC1 [Retinoic acid, all-trans-Retinoic acid]	–	–	slightly reduced the cellular growth	slight growth retarding effect	even aggravated the situation	only slight reduction of the overall metastasis development
